The source of these data is PMC7915765, “Biochemical Characterization, Specificity and Inhibition Studies of HTLV-1, HTLV-2, and HTLV-3 Proteases” (Life, 2021).

Test [1] addresses T1, HTLV-3 PR (Human T-cell leukemia virus 3, UniProt Q4U0X6). Nature of the test: Inhibition study with HIV-1 PIs, HTLV-3 PR. Also noted: made in house; host or cells: E. coli BL21(DE3), pET11a. Type of test: biochemical. To be noted: inhibitor 1 µM final, substrate HTLV-3 MA/CA 0.40–0.43 mM, DMSO control = 100%, n = 2. As to the method:
The IB-268 (KTKVL-r-VVQPK) and IB-269 (APQVL-r-PVMHP) reduced peptide bond (-r-)-containing inhibitors, which were synthesized by Dr. Ivo Blaha (Ferring Leciva, Prague, Czech Republic).
The reaction mixtures were prepared to contain 4.8 µL of substrate (in 0.40–0.43 mM final concentration), 0.2 µL of inhibitor, 5 µL of the enzyme, and 10 µL of a 2× incubation buffer. The substrates representing HTLV-2 and HTLV-3 MA/CA cleavage sites were used for HTLV-2 and HTLV-3 PRs, respectively. In the case of HIV-1 PIs, we applied 100 µM inhibitor stocks, while 0.5–100 µM stocks of IB-268 and IB-269 were used for screening. The inhibitors were dissolved in DMSO. Therefore, 0.2 µL of DMSO was added to the control samples.

For test [2], the target named is T2, HTLV-2 PR (Human T-cell leukemia virus 2, UniProt P03363). Nature of the test: Inhibition study with HIV-1 PIs, HTLV-2 PR. On the set-up: made in house; host or cells: E. coli BL21(DE3). Type of test: biochemical, human T-cell leukemia virus type 2. The note with it: inhibitor 1 µM final, substrate HTLV-2 MA/CA 0.40–0.43 mM, DMSO control = 100%, n = 2. As to the method:
The inhibitors were dissolved in DMSO.

Test [3] deals with HTLV-1 PR. Nature of the test: Protease activity assay with oligopeptide substrates (RP-HPLC), HTLV-1 PR. Format: biochemical, human T-cell leukemia virus type 1. To be noted: substrate 0.05–1.10 mM, 2× buffer 0.5 M K3PO4, 4 M NaCl, 10 v/v% glycerol, 10 mM DTT, pH 5.6, 37 °C, 0.5–4 h. The source says:
(§1) The oligopeptides representing the naturally occurring matrix/capsid (MA/CA), capsid/nucleocapsid (CA/NC), trans-frame protein/protease (TF1/PR), and PR/p1 cleavage sites of HTLV-1, -2, and -3 PRs were used as substrates. The oligopeptide substrates representing the natural sequences of HTLV PRs were ordered from BioBasic, while the oligopeptide substrates representing naturally occurring cleavage sites of various viruses, or the wild-type, the shortened, and the P4, P3, P2, P1, or P1′ variants of HTLV-1 MA/CA cleavage site (KTKVL*VVQPK) were in-house stocks. All peptides were dissolved in distilled water.
(§2) For kinetic measurements, we applied 10 µL 2× incubation buffer (0.5 M K3PO4, 4 M NaCl, 10 v/v% glycerol, 10 mM DTT, pH 5.6), 5 µL of HTLV-1, HTLV-2, or HTLV-3 PR (final concentration of the active enzyme was in 0.1–34.4 nM), and 0.5–5 µL oligopeptide substrate representing HTLV PR natural cleavage sites (0.05–1.10 mM final concentration). The final volume of the reaction mixture was set to 20 µL with distilled water if it was necessary. The reactions were initiated by the addition of the enzyme, were incubated at 37 °C for 0.5–4 h, and stopped by the addition of 180 µL 1 v/v% TFA. For substrates representing natural cleavage sites of retroviruses other than HTLV-1, -2, and -3 PRs (HIV-1, equine infectious anemia virus (EIAV), Rous sarcoma virus (RSV), mouse mammary tumor virus (MMTV), Mason-Pfizer monkey virus (MPMV), and murine leukemia virus (MuLV) and BLV) in a longer incubation time (24 h) was also applied. The cleavage products were separated by using a Nova-Pack C18 RP-HPLC column (3.9 mm × 150 mm, Waters Associates Inc, Milford, MA, USA) on HPLC (Merck-Hitachi LaChrom). Water-acetonitrile gradient (0–100%) was used for separation in the presence of 0.05% TFA at 2 mL/min flow rate. The kinetic parameters were determined by fitting the data—obtained at less than 20% substrate hydrolysis—to the Michaelis–Menten equation. The Gaussian equation was used to determine pH optimum and exponential growth equation for determination of optimal NaCl concentration, while linear regression was applied to plot the dependence of enzyme activity on temperature. Prism8 software (GraphPad Software Inc., San Diego, CA, USA) was used for evaluation. The kcat/KM catalytic constants were calculated based on the active enzyme concentration, which was determined by active site titration using the method described previously.

The target of test [4] is T1, HTLV-3 PR. Nature of the test: Protease activity assay with oligopeptide substrates (RP-HPLC), HTLV-3 PR. Format: biochemical, human T-cell leukemia virus type 3. On the set-up: made in house; host or cells: E. coli BL21(DE3), pET11a. To be noted: pH 5.6, 37 °C.
Text: as §1, §2

For test [5], the target named is T2, HTLV-2 PR. Nature of the test: Protease activity assay with oligopeptide substrates (RP-HPLC), HTLV-2 PR. Format: biochemical, human T-cell leukemia virus type 2. On the set-up: made in house; host or cells: E. coli BL21(DE3). The note with it: pH 5.6, 37 °C.
Text: as §1, §2

The test system of test [6] is HTLV-1 PR. To be noted: cleavage sites of viruses other than HTLV, retrieved from the literature, ref [28]; cited from earlier work. The source says:
Table 2 Catalytic efficiencies of HTLV PRs on different substrates representing natural cleavage site sequences. Cleavage sites are labelled by asterisks within the sequences. Abbreviations: MA (matrix), CA (capsid), NC (nucleocapsid), and TF1 (trans-frame 1). | column: kcat/KM [mM^−1 s^−1] / HTLV-1 PR || Table 3 Catalytic efficiencies of HTLV PRs on different substrates representing natural cleavage site sequences of viruses other than HTLV. Cleavage sites are labelled by an asterisk within the sequences. Abbreviations: MA (matrix), CA (capsid), NC (nucleocapsid), TF (transframe), RT (reverse-transcriptase), and IN (integrase). | column: Substrate; kcat/KM (mM^−1 s^−1) / HTLV-1 PR ^1

The subject of another test is HIV-1 PR. To be noted: cleavage sites of viruses other than HTLV, retrieved from the literature, ref [28]; cited from earlier work. An excerpt:
Table 3 Catalytic efficiencies of HTLV PRs on different substrates representing natural cleavage site sequences of viruses other than HTLV. Cleavage sites are labelled by an asterisk within the sequences. Abbreviations: MA (matrix), CA (capsid), NC (nucleocapsid), TF (transframe), RT (reverse-transcriptase), and IN (integrase). | column: kcat/KM (mM^−1 s^−1) / HIV-1 PR ^1

[7] abbreviates: natural HTLV cleavage sites, substrate 0.05–1.10 mM, 2× buffer 0.5 M K3PO4, 4 M NaCl, 10 v/v% glycerol, 10 mM DTT, 0.5–4 h.
Where [8] appears, read: cleavage sites of viruses other than HTLV, longer incubation time (24 h) also applied.

Read-outs that look alike come from different tables or passages of the source.

T1 sequence (Q4U0X6 431-553): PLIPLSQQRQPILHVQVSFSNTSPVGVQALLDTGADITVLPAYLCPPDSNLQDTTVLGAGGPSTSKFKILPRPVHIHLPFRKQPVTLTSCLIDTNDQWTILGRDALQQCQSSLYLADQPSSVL
T2 sequence (P03363 447-571): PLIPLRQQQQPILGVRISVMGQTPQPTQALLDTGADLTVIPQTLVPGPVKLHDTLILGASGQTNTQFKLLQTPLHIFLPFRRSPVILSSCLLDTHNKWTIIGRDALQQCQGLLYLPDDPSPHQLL

Turning to `O=C1N(Cc2ccc(CO)cc2)[C@H](Cc2ccccc2)[C@H](O)[C@@H](O)[C@@H](Cc2ccccc2)N1Cc1ccc(CO)cc1` [DMP-323], the loss of activity on HTLV-3 PR [1] and on HTLV-2 PR [2] was < 50% each time.

For `COC(=O)N[C@H](C(=O)N[C@@H](Cc1ccccc1)[C@@H](O)CN(Cc1ccc(-c2ccccn2)cc1)NC(=O)[C@@H](NC(=O)OC)C(C)(C)C)C(C)(C)C` [atazanavir], the loss of activity at HTLV-3 PR [1] and at HTLV-2 PR [2] was < 50% each time.

`CC(C)(C)NC(=O)[C@@H]1C[C@@H]2CCCC[C@@H]2CN1C[C@@H](O)[C@H](Cc1ccccc1)NC(=O)[C@H](CC(N)=O)NC(=O)c1ccc2ccccc2n1` [saquinavir]: the loss of activity at HTLV-3 PR [1] and on HTLV-2 PR [2] was < 50% in each case.

As usually defined, the kcat/KM is the second-order rate constant that governs catalysis at low substrate concentration. Take “ASQCL*PILHP [HTLV-3 MA/CA, oligopeptide substrate ASQCL*PILHP]”: the kcat/KM was 40900 ± 10400 M⁻¹ s⁻¹ in the test with HTLV-1 PR [3], 19700 ± 4400 M⁻¹ s⁻¹ at HTLV-3 PR [4] (setting [7]) and 2600 ± 400 M⁻¹ s⁻¹ at HTLV-2 PR [5] (setting [7]).

Take “KNKIL*MIQPK [HTLV-3 CA/NC, oligopeptide substrate KNKIL*MIQPK]”: the kcat/KM result in the test with HTLV-1 PR [3] was “not cleaved”.

“PHQLL*PIATP [HTLV-2 PR/P1, oligopeptide substrate PHQLL*PIATP]”: the kcat/KM in the test on HTLV-1 PR [3] amounted to 10700 ± 4800 M⁻¹ s⁻¹; at HTLV-3 PR [4] (setting [7]), 7500 ± 2700 M⁻¹ s⁻¹; on HTLV-2 PR [5] (setting [7]) it was 92200 ± 41400 M⁻¹ s⁻¹.

For the compound “PRTIL*PVIPL [HTLV-3 TF1/PR, oligopeptide substrate PRTIL*PVIPL]”, in the test on HTLV-1 PR [3], the kcat/KM is 109800 ± 29300 M⁻¹ s⁻¹.

For the compound “PSKVL*PVLAP [HTLV-3 PR/P1, oligopeptide substrate PSKVL*PVLAP]”, the kcat/KM stood at 7000 ± 2600 M⁻¹ s⁻¹ with HTLV-1 PR [3], 22600 ± 5800 M⁻¹ s⁻¹ at HTLV-3 PR [4] (setting [7]) and 2100 ± 300 M⁻¹ s⁻¹ on HTLV-2 PR [5] (setting [7]).

As for “RATVL*TVALH [RSV PR’/RT, oligopeptide substrate RATVL*TVALH]”, the kcat/KM is 300 M⁻¹ s⁻¹ in the test with HTLV-1 PR [6], 1900 M⁻¹ s⁻¹ with HIV-1 PR, “not cleaved” at HTLV-3 PR [4] (setting [8]) and “not cleaved” at HTLV-2 PR [5] (setting [8]).

Take “SDLVL*LSAEARR [MMTV MA/PP21, oligopeptide substrate SDLVL*LSAEARR]”: the kcat/KM entry in the test with HTLV-1 PR [6] was “not cleaved”; in the test with HIV-1 PR, 6900 M⁻¹ s⁻¹; on HTLV-3 PR [4] (setting [8]) it was “not cleaved”; at HTLV-2 PR [5] (setting [8]), “not cleaved”.

Take “SPRTIL*PLIP [HTLV-2 TF1/PR, oligopeptide substrate SPRTIL*PLIP]”: the figures for the kcat/KM in the test with HTLV-1 PR [3], at HTLV-3 PR [4] (setting [7]) and on HTLV-2 PR [5] (setting [7]) were 4900 ± 1100 M⁻¹ s⁻¹, 5000 ± 1100 M⁻¹ s⁻¹ and 132500 ± 42500 M⁻¹ s⁻¹, respectively.

As for “TATIM*MQRGN [HIV-1 P2/NC, oligopeptide substrate TATIM*MQRGN]”, the kcat/KM entry is “not cleaved” with HTLV-1 PR [6], 74000 M⁻¹ s⁻¹ in the test on HIV-1 PR, “not cleaved” at HTLV-3 PR [4] (setting [8]) and “not cleaved” at HTLV-2 PR [5] (setting [8]).

As for “TFQAY*PLREA [RSV RT/IN, oligopeptide substrate TFQAY*PLREA]”, the kcat/KM entry was “not cleaved” with HTLV-1 PR [6], 180 M⁻¹ s⁻¹ in the test with HIV-1 PR, “not cleaved” at HTLV-3 PR [4] (setting [8]) and “not cleaved” at HTLV-2 PR [5] (setting [8]).

In the case of “TQTSLL*TLDDQ [MuLV NC/PR, oligopeptide substrate TQTSLL*TLDDQ]”, the kcat/KM entry in the test with HTLV-1 PR [6], with HIV-1 PR, on HTLV-3 PR [4] (setting [8]) and on HTLV-2 PR [5] (setting [8]) was “not cleaved” in each case.

Consider “TSQAF*PLRAG [MuLV P12/CA, oligopeptide substrate TSQAF*PLRAG]”, for which the kcat/KM entry in the test on HTLV-1 PR [6] is “not cleaved”; with HIV-1 PR, 8700 M⁻¹ s⁻¹; on HTLV-3 PR [4] (setting [8]), “not cleaved”; at HTLV-2 PR [5] (setting [8]) it was “not cleaved”.

In the case of “TSTLL*IENSS [MuLV RT/IN, oligopeptide substrate TSTLL*IENSS]”, the kcat/KM result in the test on HTLV-1 PR [6], in the test on HIV-1 PR, at HTLV-3 PR [4] (setting [8]) and at HTLV-2 PR [5] (setting [8]) was “not cleaved” each time.

For “TTQCF*PILHP [HTLV-2 MA/CA, oligopeptide substrate TTQCF*PILHP]”, the results for the kcat/KM in the test on HTLV-1 PR [3], on HTLV-3 PR [4] (setting [7]) and at HTLV-2 PR [5] (setting [7]) were 14400 ± 4300 M⁻¹ s⁻¹, 37800 ± 20200 M⁻¹ s⁻¹ and 4300 ± 500 M⁻¹ s⁻¹, respectively.

As for “VSFNF*PQITL [HIV-1 TF/PR, oligopeptide substrate VSFNF*PQITL]”, the kcat/KM result in the test with HTLV-1 PR [6] is “not cleaved”; with HIV-1 PR, 6900 M⁻¹ s⁻¹; at HTLV-3 PR [4] (setting [8]) it was “not cleaved”; at HTLV-2 PR [5] (setting [8]), “not cleaved”.

Regarding “VSQNY*PIVQ [HIV-1 MA/CA, oligopeptide substrate VSQNY*PIVQ]”, the kcat/KM entry in the test on HTLV-1 PR [6] is “not cleaved”; in the test with HIV-1 PR, 45300 M⁻¹ s⁻¹; on HTLV-3 PR [4] (setting [8]) it was “not cleaved”; on HTLV-2 PR [5] (setting [8]), “not cleaved”.
